Measured values as given in patent US20190070081A1, “DEODORIZING COSMETIC COMPOSITION AND METHOD FOR PREPARING SAME” (EINS CO., LTD., priority 2015, published 2019).

Test system: skin tissue model
Experiment: Skin irritation test: MTT effective time (ET-50) viable cell assay on skin tissue model
Type: cell-based
Conditions: for % Viability: skin tissue
Description: The skin inflammation potential of a cleaning gel of product No. 1 (also known as Double. S Gel (Lot No. 15730A2); hereinafter, referred to as experimental product)) was evaluated using commercially available MTT effective time (ET-50) live cell experiment test and a skin tissue model.
The experiments performed at the Life Science Institute (BioScience Laboratories, Inc.) began on Sep. 2, 2015 and were completed on Sep. 4, 2015. One deviation in SOP generated during the experiments is shown in Tables 1 to 7 below, the protocols and/or SOP deviation recording formats (form number: 99-QA-004) of FIGS. 1 and 2. […] The skin tissue samples were exposed to the experimental product for 1 hour, 4 hours, or 24 hours.
The experimental product was tested undiluted, as provided by the sponsor. Three untreated negative control dermal tissue specimens were exposed for 24 hours.
The first tissue specimen, the second tissue specimen, and the third tissue specimen were exposed to 1.0% Triton X-100 (Lot No. 082615BBA) as a positive control for 1, 4, and 24 hours, respectively.
At the same time as the experimental procedure, MTT control was evaluated, and the evaluation was regarded as a result of direct reduction of the MTT product. […] During the experimental procedure, the frozen tissue was exposed to the experimental product to determine whether the experimental product was effectively washed from tissue.
The absorbance of the specimens was determined using a VERSA Max™ Tunable Microplate Reader (with SOFTmax® PRO Software) set to 570 nm with several […] aliquots of isopropyl alcohol.
Absorbance values were converted into the probabilistic feasibility of tissue culture by SOFTmax® PRO Software. These values were expressed as time-dependent by SOFTmax® PRO Software, and then ET-50 was determined by interpolation. ET-50 is an estimated time when the probabilistic feasibility of tissues falls to 50%.

Triton X-100 [Positive Control]
Irritancy Classification (Expected In-Vivo Irritancy) (from MTT ET-50): Moderate to Mild Irritation | % Viability (1 hour exposure): 66.51% | % Viability (4 hours exposure): 78.40% | % Viability (24 hours exposure): 6.06% | MTT ET-50 (tested undiluted, skin tissue exposed 1, 4, 24 hours, time at which viability falls to 50%, by interpolation): 4.65 h
